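These data come from cells grown in 96-well plates and exposed to compound for 48 hours at five concentrations. The concentration for 50% growth inhibition is given as GI50. TGI is the concentration that stops growth completely.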
Tests used:
Assay in all cases: DTP human tumour cell line panel, 48 h
[1] = test system: 786-0 renal
[2] = test system: A498 renal
[3] = test system: A549 NSCLC
[4] = test system: ACHN renal
[5] = test system: BT-549 breast
[6] = test system: CAKI-1 renal
[7] = test system: CCRF-CEM leukemia
[8] = test system: COLO 205 colon
[9] = test system: DU-145 prostate
[10] = test system: EKVX NSCLC
[11] = test system: HCC-2998 colon
[12] = test system: HCT-116 colon
[13] = test system: HCT-15 colon
[14] = test system: HOP-62 NSCLC
[15] = test system: HOP-92 NSCLC
[16] = test system: HS 578T breast
[17] = test system: HT29 colon
[18] = test system: IGROV1 ovarian
[19] = test system: K-562 leukemia
[20] = test system: KM12 colon
[21] = test system: LOX IMVI melanoma
[22] = test system: M14 melanoma
[23] = test system: MALME-3M melanoma
[24] = test system: MCF7 breast
[25] = test system: MDA-MB-231 breast
[26] = test system: MDA-MB-435
[27] = test system: MOLT-4 leukemia
[28] = test system: NCI-H226 lung
[29] = test system: NCI-H23 lung
[30] = test system: NCI-H460 lung
[31] = test system: NCI-H522 lung
[32] = test system: NCI/ADR-RES ovarian
[33] = test system: OVCAR-3 ovarian
[34] = test system: OVCAR-4 ovarian
[35] = test system: OVCAR-5 ovarian
[36] = test system: OVCAR-8 ovarian
[37] = test system: PC-3 prostate
[38] = test system: RPMI-8226 leukemia
[39] = test system: RXF 393 renal
[40] = test system: SF-268 CNS
[41] = test system: SF-295 CNS
[42] = test system: SF-539 CNS
[43] = test system: SK-MEL-2 melanoma
[44] = test system: SK-MEL-28 melanoma
[45] = test system: SK-MEL-5 melanoma
[46] = test system: SK-OV-3 ovarian
[47] = test system: SN12C renal
[48] = test system: SNB-19 CNS
[49] = test system: SNB-75 CNS
[50] = test system: SR leukemia
[51] = test system: SW-620 colon
[52] = test system: T-47D breast
[53] = test system: TK-10 renal
[54] = test system: U251 CNS
[55] = test system: UACC-257 melanoma
[56] = test system: UACC-62 melanoma
[57] = test system: UO-31 renal

Which results are given for `Cc1cc2c(cc1C)N(C(=O)CCl)CCN2C(=O)CCl`?
GI50 [1]: 0.657 µM; TGI [1]: 1.58 µM; GI50 [2]: 1.79 µM; TGI [2]: 3.29 µM; GI50 [3]: 2.09 µM; TGI [3]: 4.29 µM; GI50 [4]: 0.638 µM; TGI [4]: 2.08 µM; GI50 [5]: 1.31 µM; TGI [5]: 2.7 µM; GI50 [6]: 1.78 µM; TGI [6]: 4.08 µM; GI50 [7]: 0.282 µM; TGI [7]: 0.856 µM; GI50 [8]: 0.484 µM; TGI [8]: 1.02 µM; GI50 [9]: 1.54 µM; TGI [9]: 2.9 µM; GI50 [10]: 1.99 µM; TGI [10]: 4.64 µM; GI50 [11]: 1.78 µM; TGI [11]: 3.3 µM; GI50 [12]: 0.186 µM; TGI [12]: 0.409 µM; GI50 [13]: 0.45 µM; TGI [13]: 2.42 µM; GI50 [14]: 1.71 µM; TGI [14]: 3.37 µM; GI50 [15]: 1.6 µM; TGI [15]: 3.2 µM; GI50 [16]: 1.75 µM; TGI [16]: 4.96 µM; GI50 [17]: 0.301 µM; TGI [17]: 0.943 µM; GI50 [18]: 0.62 µM; TGI [18]: > 19.9 µM; GI50 [19]: 0.378 µM; TGI [19]: 2 µM; GI50 [20]: 1.72 µM; TGI [20]: 3.31 µM; GI50 [21]: 0.173 µM; TGI [21]: 0.365 µM; GI50 [22]: 1.08 µM; TGI [22]: 2.52 µM; GI50 [23]: 1.57 µM; TGI [23]: 4.5 µM; GI50 [24]: 0.451 µM; TGI [24]: 2.02 µM; GI50 [25]: 1.7 µM; TGI [25]: 3.92 µM; GI50 [26]: 1.02 µM; TGI [26]: 2.69 µM; GI50 [27]: 0.367 µM; TGI [27]: 1.74 µM; GI50 [28]: 0.559 µM; TGI [28]: 1.8 µM; GI50 [29]: 1.76 µM; TGI [29]: 3.8 µM; GI50 [30]: 1.7 µM; TGI [30]: 3.33 µM; GI50 [31]: 0.178 µM; TGI [31]: 0.348 µM; GI50 [32]: 0.746 µM; TGI [32]: 5.9 µM; GI50 [33]: 1.11 µM; TGI [33]: 2.46 µM; GI50 [34]: 1.44 µM; TGI [34]: 3.37 µM; GI50 [35]: 1.5 µM; TGI [35]: 3.08 µM; GI50 [36]: 0.644 µM; TGI [36]: 6.13 µM; GI50 [37]: 1.43 µM; TGI [37]: 2.89 µM; GI50 [38]: 0.571 µM; TGI [38]: 2.7 µM; GI50 [39]: 0.237 µM; TGI [39]: 0.668 µM; GI50 [40]: 1.82 µM; TGI [40]: 3.89 µM; GI50 [41]: 1.96 µM; TGI [41]: 4.13 µM; GI50 [42]: 1.65 µM; TGI [42]: 3.24 µM; GI50 [43]: 1.81 µM; TGI [43]: 4.22 µM; GI50 [44]: 1.56 µM; TGI [44]: 2.96 µM; GI50 [45]: 0.64 µM; TGI [45]: 1.93 µM; GI50 [46]: 1.9 µM; TGI [46]: 3.98 µM; GI50 [47]: 0.754 µM; TGI [47]: 2.67 µM; GI50 [48]: 1.81 µM; TGI [48]: 4.1 µM; GI50 [49]: 1.48 µM; TGI [49]: 3.1 µM; GI50 [50]: 0.421 µM; TGI [50]: 2.65 µM; GI50 [51]: 0.204 µM; TGI [51]: 0.42 µM; GI50 [52]: 1.4 µM; TGI [52]: 3.94 µM; GI50 [53]: 1.79 µM; TGI [53]: 4.76 µM; GI50 [54]: 1.39 µM; TGI [54]: 2.88 µM; GI50 [55]: 1.3 µM; TGI [55]: 2.71 µM; GI50 [56]: 0.657 µM; TGI [56]: 2.29 µM; GI50 [57]: 1.52 µM; TGI [57]: 3.48 µM

— PubChem BioAssay (NCI)
